Measurements from PubChem BioAssay (NCI).
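In this assay, cells in 96-well plates receive the compound at five concentrations for 48 hours. Endpoints are linearly interpolated between the surrounding concentrations. Definition used: TGI = concentration required for complete inhibition of growth.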

How the values were obtained:
Assay in all cases: inhibition of tumour cell growth, NCI panel, 48 h
[1] = tested on: A549 NSCLC
[2] = tested on: ACHN renal
[3] = tested on: CAKI-1 renal
[4] = tested on: COLO 205 colon
[5] = tested on: EKVX NSCLC
[6] = tested on: HCT-15 colon
[7] = tested on: HL-60(TB) leukemia
[8] = tested on: HOP-62 NSCLC
[9] = tested on: HOP-92 NSCLC
[10] = tested on: IGROV1 ovarian
[11] = tested on: LOX IMVI melanoma
[12] = tested on: M14 melanoma
[13] = tested on: NCI-H226 lung
[14] = tested on: NCI-H460 lung
[15] = tested on: OVCAR-4 ovarian
[16] = tested on: OVCAR-5 ovarian
[17] = tested on: PC-3 prostate
[18] = tested on: SK-OV-3 ovarian
[19] = tested on: UO-31 renal

CN(Cc1ccccc1)C(=NC#N)N(Cc1ccccc1)Cc1ccccc1
TGI [1]: > 100 µM
TGI [2]: 78.3 µM
TGI [3]: 58.6 µM
TGI [4]: 36.2 µM
TGI [5]: > 100 µM
TGI [6]: 71 µM
TGI [7]: > 100 µM
TGI [8]: 84.8 µM
TGI [9]: 55.1 µM
TGI [10]: > 80.6 µM
TGI [11]: 35 µM
TGI [12]: 47.7 µM
TGI [13]: 67.5 µM
TGI [14]: > 90.1 µM
TGI [15]: > 93 µM
TGI [16]: 94.7 µM
TGI [17]: 39.5 µM
TGI [18]: > 90.3 µM
TGI [19]: > 84.2 µM

CC1(C)CC(C2=NCCO2)CC(C)(C)N1
TGI [1]: > 100 µM
TGI [2]: > 100 µM
TGI [3]: > 100 µM
TGI [4]: > 100 µM
TGI [5]: > 100 µM
TGI [6]: > 100 µM
TGI [7]: > 100 µM
TGI [8]: > 100 µM
TGI [9]: > 100 µM
TGI [10]: > 100 µM
TGI [11]: > 100 µM
TGI [12]: > 100 µM
TGI [13]: > 100 µM
TGI [15]: > 100 µM
TGI [16]: > 100 µM
TGI [17]: > 100 µM
TGI [18]: > 100 µM
TGI [19]: > 100 µM

CCc1cc2c(c3c1CCC3=O)CC1(Cc3ccc(C)cc3C1)C2 (stereo not drawn)
TGI [1]: 40.8 µM
TGI [2]: > 100 µM
TGI [4]: > 100 µM
TGI [5]: > 100 µM
TGI [6]: > 100 µM
TGI [7]: 41 µM
TGI [8]: > 100 µM
TGI [9]: 62.8 µM
TGI [10]: > 100 µM
TGI [11]: > 100 µM
TGI [12]: > 100 µM
TGI [13]: 99.8 µM
TGI [15]: 98 µM
TGI [16]: > 100 µM
TGI [17]: 91.7 µM
TGI [18]: > 100 µM
